Key:
[1] = system: human CXCR4 receptor; experiment: In vitro receptor binding studies (CXCR4)
Excerpt: (§1) In a particular preferred embodiment the peptidic CXCR4 inhibitor is cyclo(-Tyr-His-Ala-Cys-Ser-Ala-^DPro-Dab-Arg-Tyr-Cys-Tyr-Gln-Lys-^DPro-Pro-) having a disulfide bond between Cys^4 and Cys^11, or pharmaceutically acceptable sals thereof. Cyclo(-Tyr-His-Ala-Cys-Ser-Ala-^DPro-Dab-Arg-Tyr-Cys-Tyr-Gln-Lys-^DPro-Pro-) having a disulfide bond between Cys^4 and Cys^11 is also referred as POL6326 herein or balixafortide. POL6326 is a cyclic synthetic peptide consisting of 16 amino acids and an antagonist of the highly conserved chemokine receptor CXCR4.

[2] = system: breast cancer PDX Ma15169; experiment: Tumor growth of breast cancer PDX Ma15169 in humanized NOG-EXL mice; format: in vivo; conditions: for rating according to RECIST criteria: based on T/C at last day of the study (day 183); for T/C value: last day of the study (day 183), tumor volume treated-to-control
Description: The study was designed to determine the response of the breast cancer PDX Ma15169 to treatment with Paclitaxel single agent, Balixafortide single agent and the combination of both in humanized NOG-EXL mice. Humanized NOG-EXL mice bearing the breast cancer PDX Ma15169 were treated with Paclitaxel and Balixafortide according to Table 1. Ma15169 is a patient derived xenograft (PDX) that was from a patient with an invasive ductal carcinoma (ypT1a ypNla R0 G3 L1 V1). The patient tumour was ER/PR as well as Her-2 negative. The tumour material was expanded in 9 donor mice (NOG, Taconic; https://www.taconic.com/mouse-model/ciea-nog-mouse) and fragments of about 10mm3 were each implanted subcutaneously into the flank of 50 humanized NOG-EXL mice; at this time, the passage number of Ma15169 was #4. Table 1: Course of events during the study
Female NOG-EXL mice with an age of about 4 weeks were used for the constitution of human immune cells. 24 hours before CD34+ cell inoculation mice were irradiated with 1Gy. Human CD34+ cells were isolated from fresh cord blood within the laboratories of EPO (Experimental Pharmacology & Oncology Berlin-Buch GmbH, Berlin-Buch, Germany) and preserved in liquid nitrogen until use. For the study MV16883 a pool of 5 different donors (CB AG 101, CB AG 97, CB KR 104, CB AG 106, CB AG 107) prepared. After thawing the cells were washed with PBS, pooled and washed again followed by Trypan blue staining and cell counting using Neubauer chamber. A total of 5x10^4 vital cells were resuspended in 200µl PBS and injected intravenously into the tail vain of all mice.
Determination of human immune cells by FACS was performed at days 46, 84 and 115 after cell inoculation (leucocytes CD45+, B cells CD19+, T cells CD3+, NK cells CD56+/CD16+ and monocytes CD14+; Human Immunophenotyping 8-color-Kit (Miltenyi)). The mice were weighed weekly and monitored for general health two times weekly.
The PDX Ma15169 is maintained by EPO (Experimental Pharmacology & Oncology Berlin-Buch GmbH, Berlin-Buch, Germany) as in vivo passage; the passage number for this study was #4. Donor mice (female NOG; Taconic) with tumors of about 1cm3 were used for the preparation of this study MV16883.
After removal of the tumor tissue from donor mice, the tumors were cut into fragments (2-3 mm diameter - approximately 10mm3) and placed in cooled RPMI 1640 culture medium until s.c. implantation within 30 minutes. The humanized NOG-EXL mice were anaesthetized with Etomidate and received a small incision in the skin of the left flank. The tumor fragments (one fragment/mouse) were implanted with tweezers and the incision closed with a suture clip (#310417, Covetrus GmbH). The clips were removed after seven days and mice controlled two times weekly by means of palpation. The implantation of tumor fragments was performed 122 days after the inoculation of CD34+ cells.
Tumor bearing mice were stratified into 4 treatment groups according to their tumor volumes at day 154 post CD34+ cell inoculation (32 days after tumor implantation). […] During stratification the animals were individually marked by earmarks.
Paclitaxel (Taxomedac™ comprising paclictaxel, citric acid, ethanol and PEG (30-50) castor oil) was given i.v. at a dose of 10 mg/kg twice weekly. Balixafortide was given s.c. at a dose of 20 mg/kg once daily for the first 5 days and twice daily for 5 days followed by treatment breaks of 2 days until the end of treatment period (Fig. 1). Total treatment duration was 29 days. […]

[3] = system: other potential target receptors; experiment: In vitro receptor binding studies (other receptors)
Excerpt: as §1

Structure (SMILES): C[C@@H]1NC(=O)[C@H](Cc2c[nH]cn2)NC(=O)[C@H](Cc2ccc(O)cc2)NC(=O)[C@@H]2CCCN2C(=O)[C@H]2CCCN2C(=O)[C@H](CCCCN)NC(=O)[C@H](CCC(N)=O)NC(=O)[C@H](Cc2ccc(O)cc2)NC(=O)[C@@H]2CSSC[C@H](NC1=O)C(=O)N[C@@H](CO)C(=O)N[C@@H](C)C(=O)N1CCC[C@@H]1C(=O)N[C@@H](CCN)C(=O)N[C@@H](CCCNC(=N)N)C(=O)N[C@@H](Cc1ccc(O)cc1)C(=O)N2 [Balixafortide, cyclo(-Tyr-His-Ala-Cys-Ser-Ala-^DPro-Dab-Arg-Tyr-Cys-Tyr-Gln-Lys-^DPro-Pro-) having a disulfide bond between Cys^4 and Cys^11]
- affinity for the human CXCR4 receptor [1]: significant affinity
- rating according to RECIST criteria [2]: progressive disease
- optimum T/C value ([2]; day 168, Balixafortide 20 mg/kg s.c., p > 0.05): 79%
- T/C value ([2]; Balixafortide 20 mg/kg s.c.): 107%
- binding to other potential target receptors [3]: general lack of significant binding

Structure (SMILES): CC(=O)O[C@H]1C(=O)[C@@]2(C)[C@H]([C@H](OC(=O)c3ccccc3)[C@]3(O)C[C@H](OC(=O)[C@H](O)[C@@H](NC(=O)c4ccccc4)c4ccccc4)C(C)=C1C3(C)C)[C@]1(OC(C)=O)CO[C@@H]1C[C@@H]2O [Paclitaxel]
- rating according to RECIST criteria [2]: stable disease
- T/C value ([2]; Paclitaxel 10 mg/kg i.v. twice weekly, Balixafortide 20 mg/kg s.c.): 42%

Reference: patent EP4000613A1, “PHARMACEUTICAL COMBINATIONS COMPRISING A PEPTIDE CXCR4 INHIBITOR AND A TAXANE FOR TREATING CANCER” (Polyphor AG, priority 2020, dated 2022)
